Assay: aqueous kinetic solubility
Format: physicochemical
Details: PBS, pH 7.4, PBS pH 7.4, target 250 µM, 2.5% DMSO, 25°C
Procedure: 1. In vitro m etabolic stabili ty
In vitro microsomial stability. 10mM DMSO stock solution of test compound was pre-incubated at 37 °C for 15min with mouse liver microsomes added 0.1M Tris-HCl buffer (pH 7.4). The final concentration was 4.6µM. After pre -incubation, the co-factors (NADPH, G6P, G6PDH and MgCl2 pre-dissolved in 0.1M Tris-HCl) were added to the incubation mixture and the incubation was continued at 37 °C for 1h. At each time point (0, 5, 15, 30, 60min), 30µL of incubation mixture was diluted with 200µL cold CH 3CN spiked with 200n M of internal standard, followed by centrifugation at 3500g for 15min. The supernatant was further diluted with H2O (1:1) for analysis. The concentration of test compound was quantified by LC/MS-MS on a Waters ACQUITY UPLC/M S TQD system consisting of a TQD (Triple Quadrupole Detector) Mass Spectrometer equipped with an Electrospray Ionization interface. The analyses were run on an ACQUITY UPLC BEH C18 (50x2.1mmID, particle size 1.7µm) with a VanGuard BEH C18 pre -column (5x2.1mmID, particle size 1.7µm) at 40°C, using 0.1% HCOOH in H 2O (A) and 0.1% HCOOH in CH 3CN (B) as mobile phase. Electrospray ionization (ESI) was app lied in positive mode . The percentage of test compound remaining at each time point relative to t=0 was calculated. The half -lives (t½) were determined by an one-phase decay equation using a non -linear regression of compound concentration versus time.
In vitro Plasma Stability. 10mM DMSO stock solution of test compound was diluted 50 -fold with DMSO-H2O (1:1) and incubated at 37 °C for 2 h with mouse plasma added 5% DMSO (pre-heated at 37 °C for 10 min). The final concentration was 2µM. At each time point (0, 5, 15, 30, 60, 120min), 50 µL of incubation mixture was diluted with 200µL cold CH3CN spiked with 200nM of internal standard, followed by centrifugation at 3500g for 20min. The supernatant was further diluted with H2O (1:1) for analysis. The concentration of test compound was quantified by LC/MS-MS on a Waters ACQUITY UPLC/MS TQD system consisting of a TQD (Triple Quadrupole Detector) Mass Spectrometer equipped with an Electrospray Ionization interface. The analyses were run on an ACQUITY UPLC BEH C18 (50x2.1mmID, particle size 1.7µm) with a VanGuard BEH C18 pre - column (5x2.1mmID, particle size 1.7µm) at 40°C, using 0.1% HCOOH in H2O (A) and 0.1% HCOOH in CH3CN (B) as mobile phase. Electrospray ionization (ESI) was applied in positive mode.
The response factors, calculated on the basis of the internal standard peak area, were plotted over time. When possible, response vs. time profiles were fitted with Prism (GraphPad Software, Inc., USA) to estimate compounds half-life in plasma.
2. Aqueous ki netic solu bili ty
The aqueous kinetic solubility was determined from a 10mM DMSO stock solution of test compound in Phosphate Buffered Saline (PBS) at pH 7.4. The study was performed by incubation of an aliquot of 10mM DMSO stock solution in PBS (pH 7.4) at a target concentration of 250µM resulting in a final concentration of 2.5% DMSO. The incubation was carried out under shaking at 25°C for 24h followed by centrifugation at 21.100g for 30min. The supernatant was analyzed by UPLC/MS for the quantification of dissolved compound by UV at a specific wavelength (215nm).
The analyses were performed on a Waters ACQUITY UPLC/MS SQD system consisting of a SQD (Single Quadrupole Detector) Mass Spectrometer equipped with Electrospray Ionization interface.
The analyses were run on an ACQUITY UPLC BEH C18 column (50x2.1mmID, particle size 1.7µm) with a VanGuard BEH C18 pre-column (5x2.1mmID, particle size 1.7µm), using 10mM NH4OAc in H2O at pH 5 adjusted with AcOH (A) and 10mM NH4OAc in MeCN-H2O (95:5) at pH 5 (B) as […]

`O=C(Nc1cccc(OC(F)(F)F)c1)c1c(O)n(-c2ccccc2)c(=S)n(-c2ccccc2)c1=O` [3f, 6-Hydroxy-4-oxo-1,3-diphenyl-2-thioxo-N-(3-(trifluoromethoxy)phenyl)-1,2,3,4-tetrahydropyrimidine-5-carboxamide] showed a solubility kinetic at 24 h greater than 200 µM.

— PMC7997578, “Design, Synthesis, Dynamic Docking, Biochemical Characterization, and in Vivo Pharmacokinetics Studies of Novel Topoisomerase II Poisons with Promising Antiproliferative Activity” (Journal of Medicinal Chemistry, 2020)
